Laboratory results: patent publication US20170183318A1, “AMIDE COMPOUNDS, METHODS FOR PREPARATION, AND USE THEREOF AS AGENTS FOR THE TREATMENT AND PREVENTION OF DISEASES CAUSED BY RNA- AND/OR DNA-CONTAINING VIRUSES, AND CONCOMITANT DISEASES” (OBSCHESTVO S OGRANICHENNOI OTVETSTVENNOSTIYU …, priority 2014, published 2017)

System: human respiratory syncytial virus (strain A2)
Test: Antiviral activity against RS virus in a murine model of suppressed immune system (lung edema)
Format: in vivo
Settings: Balb/c mice, cyclophosphan-suppressed, RS-virus pneumonia; 30 mg/kg once daily for 5 days; M ± SD, n = 5; scores from possible 4
Description: Antiviral activity of the chemical compounds against human respiratory syncytial virus (strain A2, an infectious titer of 5×10^6 TCID50/mL) was assessed in a Balb/c murine model of viral pneumonia. The virus was inoculated to animals intranasally in a volume of 50 μL under brief ether anesthesia. The immune response in animals to RS virus was suppressed by intraperitoneal administration of cyclophosphan at a dose of 100 mg/kg 5 days before infection. The studied compounds were administered according to the treatment regimen once daily at a dose of 30 mg/kg for 5 days, starting 24 hours after infection. The activity of the compounds was determined by a reduction in edema of the lung infected with respiratory syncytial virus, compared to the control, on day 5 after infection.

SMILES | Degree of lung edema on day 5 after infection, score [score]
O=C(O)CCCC(=O)NCCC1CCCNC1 (stereo not drawn) [Compound 5] | 1.10 ± 0.19
O=C(O)CCCC(=O)NCCc1cscn1 [Compound 121] | 1.30 ± 0.60
O=C(O)CCCC(=O)NCCc1cnco1 [Compound 123] | 1.30 ± 0.17

System: human virus hRSV
Test: Antiviral activity against mouse-adapted RS virus (body weight; viral titer in lungs titrated in Hep-2 cells)
Format: in vivo, mice
Settings: day 5; 10% lung suspension titrated in Hep-2 cells (TCID); compounds 30 mg/kg, Ribavirin 40 mg/kg
Description: Antiviral effectiveness of the chemical compounds against RSV in an experimental murine model in vivo was determined for human virus hRSV that was previously adapted to the growth in mouse lungs. The animals were infected with the virus at a dose of 0.5 log TCID50 intranasally under brief ether anesthesia in a volume of 0.05 ml/mouse. The studied compounds were administered orally once daily for 5 days according to the treatment regimen at a dose of 30 mg/kg. The first administration was made 24 hours after infection. Normal saline solution was administered to mice as placebo. Intact animals served as a negative control and were hold in a separate room under the same conditions as the experimental animals. Each experimental group comprised 12 animals.
The antiviral activity of the studied compounds was determined by the efficiency in the prevention of weight loss and by suppression of the reproduction of hRSV in the mouse lungs by measuring a viral titer in the experimental groups relative to the control on days 5 and 7 after infection.
In addition, the therapeutic action of the compounds of general formula I was determined by their ability to suppress the reproduction of hRSV in the mouse lungs on days 5 and 7 after infection. The viral titer was determined by the titration of a 10% lung suspension in Hep-2 cell culture. The result was registered 2 days after the incubation at 37° C. by TCID.

SMILES | hRSV in the lungs of mice, Day 5, lg [lg]
O=C(O)CCCC(=O)NCCC1CCCNC1 (stereo not drawn) [Compound 5] | 2.17 ± 0.37
O=C(O)CCCC(=O)NCCc1cscn1 [Compound 121] | 3.08 ± 0.47
O=C(O)CCCC(=O)NCCc1cnco1 [Compound 123] | 2.50 ± 0.43

Same assay, conditions: day 5; compounds 30 mg/kg, Ribavirin 40 mg/kg, orally once daily for 5 days; n = 6

SMILES | Body weight of the mice on day 5 after infection with hRSV (M ± SD)
O=C(O)CCCC(=O)NCCC1CCCNC1 (stereo not drawn) [Compound 5] | 16.02 ± 0.16
O=C(O)CCCC(=O)NCCc1cscn1 [Compound 121] | 16.35 ± 0.20
O=C(O)CCCC(=O)NCCc1cnco1 [Compound 123] | 15.87 ± 0.20

Same assay, conditions: day 7; 10% lung suspension titrated in Hep-2 cells (TCID); compounds 30 mg/kg, Ribavirin 40 mg/kg

SMILES | hRSV in the lungs of mice, Day 7, lg [lg]
O=C(O)CCCC(=O)NCCC1CCCNC1 (stereo not drawn) [Compound 5] | 0.88 ± 0.31
O=C(O)CCCC(=O)NCCc1cscn1 [Compound 121] | 1.50 ± 0.14
O=C(O)CCCC(=O)NCCc1cnco1 [Compound 123] | 1.33 ± 0.19

Same assay, conditions: day 7; compounds 30 mg/kg, Ribavirin 40 mg/kg, orally once daily for 5 days; n = 6

SMILES | Body weight of the mice on day 7 after infection with hRSV (M ± SD)
O=C(O)CCCC(=O)NCCC1CCCNC1 (stereo not drawn) [Compound 5] | 17.78 ± 0.26
O=C(O)CCCC(=O)NCCc1cscn1 [Compound 121] | 17.38 ± 0.29
O=C(O)CCCC(=O)NCCc1cnco1 [Compound 123] | 17.55 ± 0.53

Same assay, conditions: human respiratory syncytial virus, HEp-2, po, 120 h, read-out: Suppression of the reproduction of hRSV in the lungs of mice, Day 5, Δlg

SMILES | log reduction at 30 mg/kg
O=C(O)CCCC(=O)NCCC1CCCNC1 (stereo not drawn) [Compound 5] | 2.43 ± 0.37
O=C(O)CCCC(=O)NCCc1cscn1 [Compound 121] | 1.52 ± 0.47
O=C(O)CCCC(=O)NCCc1cnco1 [Compound 123] | 2.1 ± 0.43

Same assay, conditions: human respiratory syncytial virus, HEp-2, po, 168 h, read-out: Suppression of the reproduction of hRSV in the lungs of mice, Day 7, Δlg

SMILES | log reduction at 30 mg/kg
O=C(O)CCCC(=O)NCCC1CCCNC1 (stereo not drawn) [Compound 5] | 2.93 ± 0.31
O=C(O)CCCC(=O)NCCc1cscn1 [Compound 121] | 2.09 ± 0.22
O=C(O)CCCC(=O)NCCc1cnco1 [Compound 123] | 2.62 ± 0.5

System: not listed separately
Test: Rat model of nasopharyngitis induced by formalin (nasal mucosa changes, cell elements in nasal lavage)
Format: in vivo
Settings: Wistar rats, 18 mg/kg for 3 days, number of animals out of n = 10, control 0 of 20
Description: Nasopharyngitis was induced by intranasal administration of formalin to each nasal passage of rats.
The administration of formalin to the nasal passages of rats leads to the dissemination of inflammation to adjacent tissues, resulting in a clinical pattern similar to the symptoms of nasopharyngitis in a human.
After an acclimatization period, the following groups were formed: • intact animals administered intragastrically a physiological solution in an amount of 0.2 ml, without induction of nasopharyngitis; • a control group consisted of animals administered intragastrically a physiological solution in an amount of 0.2 ml for 3 days after induction of nasopharyngitis; and • animals administered the studied compounds at a dose of 18 mg/kg for 3 days after induction of nasopharyngitis.
Clinical observation of each animal was performed every day at least twice daily.
The caused pathology was characterized by hyperplasia, increased number of caliciform cells, pronounced infiltration of mononuclear cells and leucocytes, and mucus hyperproduction by submucosal glands.
After euthanasia, the inflammation pattern in the nasal passages and throat was studied in each group of animals. The nasal passages were washed with 5 mL of physiological solution and the score of cell elements were counted in 1 μL.

SMILES | Mucous membrane of nasal passages: Without changes (number of animals)
O=C(O)CCCC(=O)NCCC1CCCNC1 (stereo not drawn) [Compound 5] | 5

Same assay, conditions: Wistar rats, 18 mg/kg for 3 days, number of animals out of n = 10, control 20 of 20

SMILES | Mucous membrane of nasal passages: Discharge mucus from the nasal passages (number of animals)
O=C(O)CCCC(=O)NCCC1CCCNC1 (stereo not drawn) [Compound 5] | 5

System: herpes simplex virus belonging to antigenic type 2
Test: Murine model of experimental herpetic meningoencephalitis (mortality)
Format: in vivo, white outbred mice
Settings: Mus musculus, po, 336 h
Description: In the study, herpes simplex virus belonging to antigenic type 2 was used. White outbred mice weighing 7-8 g were infected i/c (intracerebrally) in a volume of 0.05 ml/mouse comprising a dose of 10LD50. The infectious dose of the virus that caused 100% mortality in mice was 10LD50. Each experimental group comprised 20 mice. Intact animals served as control and were hold in a separate room under the same conditions as the experimental animals. The antiviral activity of the compounds of general formula I was studied by oral administration of the compounds to infected mice once daily at a dose of 30 mg/kg/mouse 24, 48, 72, 96, and 120 hours after infection of the animals with the virus. The mice of the control group were administered placebo (0.2 mL of physiological solution) under the same conditions. The animals were monitored for 14 days after infection by registration the mouse death in the groups.
Each animal was subjected to once-daily observation. The observation included the assessment of general behavior and body condition of animals. The animals were handled according to the International Standards.
The activity of the compounds was evaluated by comparing mortality rates in the groups of animals administered a preparation and placebo.

SMILES | mortality at 30 mg/kg [%]
O=C(O)CCCC(=O)NCCC1CCCNC1 (stereo not drawn) [Compound 5] | 35
